Source: PubChem BioAssay AID256 (DTP/NCI, 2004)
Where “and” joins values, the source holds several entries; their conditions need not be identical. Equal values may be shown once. Toxic doses and inconclusive results are not listed. The calls were made as follows: active = survival T/C of 150% or more; inactive = T/C below 125% in these data.

Tested on: CD2F1 mice, L1210 leukemia ip, survival T/C
Experiment: NCI In Vivo Anticancer Drug Screen. Data for tumor model L1210 Leukemia (intraperitoneal) in CD2F1 (CDF1) mice
Details: endpoint: mean survival time, higher = longer survival
Summary of the method: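 Mice carrying a transplanted tumor received test compound or vehicle alone. The value is the measurement in the treated group divided by that in the vehicle-treated control group.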

[1] = dose: 100.0 mg/kg/injection, schedule: Q04DX003 (ip), vehicle: saline with Tween-80
[2] = dose: 200.0 mg/kg/injection, schedule: Q04DX003 (ip), vehicle: saline with Tween-80
[3] = dose: 100.0 mg/kg/injection, schedule: Q01DX001 (ip), vehicle: saline with Tween-80
[4] = dose: 200.0 mg/kg/injection, schedule: Q01DX001 (ip), vehicle: saline with Tween-80

Measured: T/C

NC(CC[Se]Cc1ccccc1)C(=O)O (stereo unspecified)
inactive: dose: 6.25 mg/kg/injection, schedule: Q01DX009 (ip), vehicle: saline with Tween-80 92 % of control | dose: 12.5 mg/kg/injection, schedule: Q01DX009 (ip), vehicle: saline with Tween-80 92 % of control | dose: 25.0 mg/kg/injection, schedule: Q01DX009 (ip), vehicle: saline with Tween-80 92 % of control | [1] 90 % of control | [2] 86 % of control

Cc1nc(-c2ccccc2)[nH]c(=O)c1Cc1cc2c(cc1O)OCC2
inactive: dose: 100.0 mg/kg/injection, schedule: Q01DX001 (ip), vehicle: saline 100 % of control | dose: 200.0 mg/kg/injection, schedule: Q01DX001 (ip), vehicle: saline 101 % of control | dose: 400.0 mg/kg/injection, schedule: Q01DX001 (ip), vehicle: saline 100 % of control

O=C1OC(c2ccc(Cl)cc2)=N/C1=C\c1ccccc1
inactive: dose: 100.0 mg/kg/injection, schedule: Q01DX009 (ip), vehicle: acetone 97 % of control | dose: 200.0 mg/kg/injection, schedule: Q01DX009 (ip), vehicle: acetone 101 % of control

O=C(Nc1ccccc1)C(Cl)Cl
inactive: [1] 103 % of control | [2] 103 % of control | dose: 400.0 mg/kg/injection, schedule: Q04DX003 (ip), vehicle: saline with Tween-80 97 % of control

O=c1cc(CO)[nH]c(=O)[nH]1
inactive: dose: 12.5 mg/kg/injection, schedule: Q01DX009 (ip), vehicle: other 91 % of control | dose: 25.0 mg/kg/injection, schedule: Q01DX009 (ip), vehicle: other 94 % of control | dose: 50.0 mg/kg/injection, schedule: Q01DX009 (ip), vehicle: other 91 % of control | dose: 100.0 mg/kg/injection, schedule: Q01DX009 (ip), vehicle: other 92 % of control | dose: 200.0 mg/kg/injection, schedule: Q01DX009 (ip), vehicle: other 97 % of control

O/N=C1\CCCC\C1=N/O.O/N=C1\CCCC\C1=N/O.[Pt]
inactive: dose: 3.13 mg/kg/injection, schedule: Q04DX003 (ip), vehicle: dextrose 98 % of control | dose: 6.25 mg/kg/injection, schedule: Q04DX003 (ip), vehicle: dextrose 98 % of control | dose: 12.5 mg/kg/injection, schedule: Q04DX003 (ip), vehicle: dextrose 101 % of control | dose: 25.0 mg/kg/injection, schedule: Q04DX003 (ip), vehicle: dextrose 98 % of control | dose: 50.0 mg/kg/injection, schedule: Q04DX003 (ip), vehicle: dextrose 97 % of control and 101 % of control | dose: 100.0 mg/kg/injection, schedule: Q04DX003 (ip), vehicle: dextrose 93 % of control and 101 % of control | dose: 200.0 mg/kg/injection, schedule: Q04DX003 (ip), vehicle: dextrose 96 % of control and 101 % of control | dose: 400.0 mg/kg/injection, schedule: Q04DX003 (ip), vehicle: dextrose 101 % of control

c1ccc2c(c1)OCC(CN1CCc3[nH]c4ccccc4c3C1)O2 (stereo unspecified)
inactive: dose: 50.0 mg/kg/injection, schedule: Q01DX001 (ip), vehicle: saline with Tween-80 106 % of control | [3] 98 % of control | [4] 93 % of control

N#CC(C#N)=NNc1ccc(S(=O)(=O)O)cc1
inactive: dose: 100.0 mg/kg/injection, schedule: Q01DX009 (ip), vehicle: saline 93 % of control | dose: 200.0 mg/kg/injection, schedule: Q01DX009 (ip), vehicle: saline 95 % of control | dose: 400.0 mg/kg/injection, schedule: Q01DX009 (ip), vehicle: saline 95 % of control

O=NN1C(=O)C2CC3CC(C2)CC1C3
inactive: dose: 12.5 mg/kg/injection, schedule: Q04DX003 (ip), vehicle: acetone 94 % of control

O=C1OC2CC1(O)CC(O)C2O (stereo unspecified)
inactive: [3] 96 % of control | [4] 89 % of control

Cc1cc(C(O)CNC(C)CCn2cnc3c2c(=O)n(C)c(=O)n3C)ccc1O (stereo unspecified)
inactive: dose: 12.5 mg/kg/injection, schedule: Q01DX005 (ip), vehicle: water 93 % of control | dose: 25.0 mg/kg/injection, schedule: Q01DX005 (ip), vehicle: water 96 % of control | dose: 50.0 mg/kg/injection, schedule: Q01DX005 (ip), vehicle: water 96 % of control | dose: 100.0 mg/kg/injection, schedule: Q01DX005 (ip), vehicle: water 100 % of control | dose: 200.0 mg/kg/injection, schedule: Q01DX005 (ip), vehicle: water 93 % of control

O=C(Nc1cccc(Cl)c1)c1ccc(C(=O)Nc2cccc(Cl)c2)cc1
inactive: dose: 75.0 mg/kg/injection, schedule: Q01DX001 (ip), vehicle: saline 100 % of control | dose: 150.0 mg/kg/injection, schedule: Q01DX001 (ip), vehicle: saline 98 % of control | dose: 300.0 mg/kg/injection, schedule: Q01DX001 (ip), vehicle: saline 102 % of control

Clc1ccc(NC(Nc2ccc(Cl)cc2Cl)C(Cl)(Cl)Cl)c(Cl)c1
inactive: dose: 100.0 mg/kg/injection, schedule: Q01DX009 (ip), vehicle: saline with Tween-80 101 % of control | dose: 200.0 mg/kg/injection, schedule: Q01DX009 (ip), vehicle: saline with Tween-80 106 % of control | dose: 400.0 mg/kg/injection, schedule: Q01DX009 (ip), vehicle: saline with Tween-80 95 % of control
